Data: patent US20120204273A1, “COMPOSITIONS RELATING TO A PHOSPHOPROTEIN AND METHODS OF USE” (SANFORD-BURNHAM MEDICAL RESEARCH INSTITUTE, priority 2010, published 2012)

System: 3T3-L1 adipocytes
Assay: GSV-PM fusion in live adipocytes (IRAP-pHluorin, TIRF microscopy)
Format: cell-based, mouse
Excerpt: FIG. 3, panels A-C, show knockdown of CDP138 in live 3T3-L1 adipocytes inhibits insulin-stimulated membrane fusion between GLUT4 storage vesicles (GSV) and the PM, but not GLUT4-EGFP trafficking to the TIRF zone. (A): Schematic illustration of the molecular probes and TIRF microcopy-based live cell assays for GLUT4 trafficking and GSV-PM fusion. (B) and (C): The effect of CDP138 knockdown on insulin-stimulated IRAP-pHluorin insertion into the PM (B), and accumulation of GLUT4-EGFP in the TIRF zone (C). Adipocytes (day 4) were transfected by electroporation with plasmid DNA encoding IRAP-pHluorin or GLUT4-EGFP, together with either the scrambled siRNA or smartPool siRNA against mouse 5730419I09Rik. Cells were reseeded on glass-bottomed dishes for 72 hrs, serum starved for 2 hr then stimulated with 100 nM insulin for 30 min. Analyses were performed in a cell warmer adapted for a Nikon TiE with fully motorized combined dual laser (488 and 561 nm). Images were acquired every 3 min immediately after addition of insulin and analyzed as described in the Supplementary Experimental Procedures. Perfect focus system and multiple points capture program (NIS Element) were used to acquire images from multiple positively transfected cells at each time point. […]
Total Internal Reflection Fluorescence (TIRF) Microscopy: Nikon (Melville, N.Y.) TI-TIRF-E, which was based on the objective lens method, was used to perform all the TIRF experiments. […] Positively transfected adipocytes were identified, and the insulin-stimulated IRAP vesicle-PM fusion events or GLUT4-EGFP trafficking to the TIRF zone were recorded every 3 min for a 30 min period using Nikon Eclipse-Ti TIRF microscope. […]
Image Analysis and Quantification: TIRF and wide field fluorescence microscopy were performed using a Nikon inverted microscope (Melville, N.Y.) with a cooled charge-coupled device camera. […]

## insulin
  stimulation of GSV fusion with the PM in the TIRF zone: significantly stimulates
